Article PMC10008561 (Nature Communications, 2023)
“And” between values parts separate entries of the source, which are not always exact repeats. Equal entries are not always repeated. Where two headings read alike, the source gives them in different places.

Key:
[1] = target: T1, human KOR (Gi1) (Homo sapiens, UniProt P41145); assay: cell-based
T1 construct: expressed in transfected cells; host or cells: HEK293T

[2] = target: T2, human KOR (Gi2) (Homo sapiens, UniProt P41145); assay: cell-based; conditions: HEK-293T
T2 construct: expressed in transfected cells; host or cells: HEK293T
T2 sequence (P41145 whole entry): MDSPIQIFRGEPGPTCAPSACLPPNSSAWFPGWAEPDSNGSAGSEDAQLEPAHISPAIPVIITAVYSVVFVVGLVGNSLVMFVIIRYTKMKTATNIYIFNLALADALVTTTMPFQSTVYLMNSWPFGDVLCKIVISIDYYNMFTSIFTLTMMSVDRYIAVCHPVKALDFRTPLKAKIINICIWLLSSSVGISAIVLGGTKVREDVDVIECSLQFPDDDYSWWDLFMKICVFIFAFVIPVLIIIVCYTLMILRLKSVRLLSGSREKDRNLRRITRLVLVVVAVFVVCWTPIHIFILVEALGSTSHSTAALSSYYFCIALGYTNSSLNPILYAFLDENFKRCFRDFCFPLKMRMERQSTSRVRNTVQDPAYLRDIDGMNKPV

[3] = target: T3, human KOR (Gi3) (Homo sapiens, UniProt P41145); assay: cell-based; conditions: HEK-293T
T3 construct: expressed in transfected cells; host or cells: HEK293T
T3 sequence (P41145 whole entry): as above

[4] = target: T4, human KOR (GoA) (Homo sapiens, UniProt P41145); assay: cell-based; conditions: HEK-293T
T4 construct: expressed in transfected cells; host or cells: HEK293T
T4 sequence (P41145 whole entry): as above

[5] = target: T5, human KOR (GoB) (Homo sapiens, UniProt P41145); assay: cell-based; conditions: HEK-293T
T5 construct: expressed in transfected cells; host or cells: HEK293T
T5 sequence (P41145 whole entry): as above

[6] = target: T6, human KOR (Gz) (Homo sapiens, UniProt P41145); assay: cell-based; conditions: HEK-293T
T6 construct: expressed in transfected cells; host or cells: HEK293T
T6 sequence (P41145 whole entry): as above

[7] = target: T7, human KOR (Gustducin) (Homo sapiens, UniProt P41145); assay: cell-based
T7 construct: expressed in transfected cells; host or cells: HEK293T
T7 sequence (P41145 whole entry): as above

[8] = target: T8, human KOR (β-arrestin 1) (Homo sapiens, UniProt P41145); assay: cell-based; conditions: HEK-293T
T8 construct: expressed in transfected cells; host or cells: HEK293T
T8 sequence (P41145 whole entry): as above

[9] = target: T9, human KOR (β-arrestin 2) (Homo sapiens, UniProt P41145); assay: cell-based; conditions: HEK-293T
T9 construct: expressed in transfected cells; host or cells: HEK293T
T9 sequence (P41145 whole entry): as above

[10] = target: T10, human KOR (Homo sapiens, UniProt P41145); assay: cell-based
T10 sequence (P41145 whole entry): as above

[11] = target: T11, human KOR (Homo sapiens, UniProt P41145, Q115N); assay: cell-based; conditions: HEK-293T
T11 construct: expressed in transfected cells; host or cells: HEK 293T (ATCC, CRL-3216)
T11 sequence (P41145 whole entry Q115N): as the sequence (P41145 whole entry) above, with Q115N counted along it

[12] = target: T12, human KOR (Homo sapiens, UniProt P41145, W287A); assay: cell-based; conditions: HEK-293T
T12 construct: expressed in transfected cells; host or cells: HEK 293T (ATCC, CRL-3216)
T12 sequence (P41145 whole entry W287A): as the sequence (P41145 whole entry) above, with W287A counted along it

[13] = target: T10, human KOR; assay: cell-based; remark: listed apart in the source
[14] = target: T11, human KOR; assay: cell-based; conditions: HTLA
[15] = target: T12, human KOR; assay: cell-based; conditions: HTLA
[16] = system: KOR; assay type: cell-based, human
[17] = system: KOR; assay: Bias factor, Gz vs β-arrestin2 (BRET), U50,488 as reference; assay type: cell-based, human
[18] = target: T10, human KOR; assay: cell-based; design: expressed in transfected cells; host or cells: HEK 293T (ATCC, CRL-3216); conditions: HEK-293T
[19] = target: T10, human KOR; assay: cell-based; design: expressed in transfected cells; host or cells: HEK 293T (ATCC, CRL-3216); conditions: HTLA
[20] = target: T13, KOR Q115N (Homo sapiens, UniProt P41145, Q115N); assay: cell-based; design: expressed in transfected cells; host or cells: HEK 293T (ATCC, CRL-3216); conditions: read-out: cAMP response (Figure S4C), KOR Q115N, Log [Drug], replicate values
Target sequence in this assay (P41145 whole entry Q115N): as the sequence (P41145 whole entry) above, with Q115N counted along it

[21] = target: T13, KOR Q115N; assay: cell-based; design: TEV cleavage site (C); tTA transcription factor (C); expressed in transfected cells; host or cells: HTLA cells; conditions: read-out: Tango response (Figure S4C), KOR Q115N, Log [Drug], replicate values
Target sequence in this assay (P41145 whole entry Q115N): as the sequence (P41145 whole entry) above, with Q115N counted along it
Target sequence in this assay (P32121 whole entry partner): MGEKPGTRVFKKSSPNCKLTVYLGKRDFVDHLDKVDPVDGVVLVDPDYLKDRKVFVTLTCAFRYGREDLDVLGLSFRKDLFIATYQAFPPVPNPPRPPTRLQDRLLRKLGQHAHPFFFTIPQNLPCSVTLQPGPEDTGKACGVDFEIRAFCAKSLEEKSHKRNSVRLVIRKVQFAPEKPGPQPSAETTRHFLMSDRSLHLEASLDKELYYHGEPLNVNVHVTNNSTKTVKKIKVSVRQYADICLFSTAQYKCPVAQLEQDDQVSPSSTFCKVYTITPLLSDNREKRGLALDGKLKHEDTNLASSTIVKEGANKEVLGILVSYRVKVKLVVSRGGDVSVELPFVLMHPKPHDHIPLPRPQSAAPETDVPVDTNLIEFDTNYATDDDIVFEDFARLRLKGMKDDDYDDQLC

[22] = system: human KOR (Gustducin); conditions: cited from earlier work
[23] = read-out: Gz (Figure 5A concentration-response, replicate values)
[24] = read-out: βArrestin1 (Figure 5A concentration-response, replicate values)
[25] = read-out: cAMP response (Figure S4C)
[26] = read-out: Tango response (Figure S4C)

T1 sequence (P41145 whole entry): as the sequence (P41145 whole entry) above

Compound `COC(=O)N1CCN(C(=O)Cc2ccc(Cl)c(Cl)c2)C2C(N3CCCC3)CCCC21` (centres unmarked) [WMS-X600] has an Emax% [1] of 101.3%, an Emax ([1]; HEK-293T) of 84 ± 8% and an Emax [2] of 99.3%. The Emax [3] was 99.2%, the Emax [4] was 99.8% and the Emax [5] was 99.2%. It also gave an Emax [6] of 97.7%, an activation at 0.001 µM [6, 23] of 86.2% and an activation at 0.01 µM [6, 23] of 100%. For the same compound, the activation at 0.1 µM [6, 23] was 101%, the activation at 1 µM [6, 23] was 95.2% and the activation at 10 µM [6, 23] was 97.8%. The Emax% [7] was 94%, the Emax ([7]; HEK-293T) was 93.6% and the Emax [8] was 93.8%. For the same compound, the activation at 0.01 µM [8, 24] was 33.5%, the activation at 1 µM [8, 24] was 86.2% and the activation at 10 µM [8, 24] was 91.8%. For the same compound, the Emax [9] was 102 ± 6%, the “increase of potency for G protein signaling” value [10] was 10 fold and the “loss of potency in G protein activation” value [10] was 82 fold. For the same compound, the Emax [11] was 103 ± 1%, the Emax [12] was 98 ± 5% and the “increase of potency for arrestin signaling” value [13] was 5 fold. For the same compound, the “loss of potency in arrestin recruitment” value [13] was 232 fold, the Emax [14] was 110 ± 6% and the Emax [15] was 108 ± 7%. The “ΔΔLog τ/KA (95% confidence interval)” value [16] was 1 (0.81-1.19), the “bias factor towards arrestin pathway” value [17] was 8.6 and the Emax [18] was 95 ± 3%. For the same compound, the activation at 31.62 pM [18, 25] was 34.2%, the activation at 0.0001 µM [18, 25] was 56.7% and the activation at 0.001 µM [18, 25] was 78.9%. For the same compound, the activation at 0.01 µM [18, 25] was 101%, the activation at 0.1 µM [18, 25] was 103% and the activation at 1 µM [18, 25] was 91.1%. The activation at […] [18, 25] was 68.9% and 97.5% and 102% and 90.6%, the Emax [19] was 96 ± 5% and the activation at 0.001 µM [19, 26] was 78.7%. For the same compound, the activation at 0.1 µM [19, 26] was 116%, the activation at 1 µM [19, 26] was 112% and the activation at 10 µM [19, 26] was 123%. The activation at […] [19, 26] was 43.5% and 72.6% and 125%, the activation at 1 µM ([20]; M -6) was 99.1% and the activation at […] ([20]; M -6.5) was 107%. The activation at 0.1 µM ([20]; M -7) was 105%, the activation at […] ([20]; M -7.5) was 104% and the activation at 0.01 µM ([20]; M -8) was 103%. For the same compound, the activation at […] ([20]; M -8.5) was 100%, the activation at 0.001 µM ([20]; M -9) was 97.8% and the activation at […] ([20]; M -9.5) was 101%. The activation at 0.0001 µM ([20]; M -10) was 92.8%, the activation at 31.62 pM ([20]; M -10.5) was 81.3% and the activation at 10 pM ([20]; M -11) was 56.3%. The activation at 3.162 pM ([20]; M -11.5) was 33.3%, the activation at 10 µM ([21]; M -5) was 120% and the activation at […] ([21]; M -5.5) was 124%. For the same compound, the activation at 1 µM ([21]; M -6) was 123%, the activation at […] ([21]; M -6.5) was 107% and the activation at 0.1 µM ([21]; M -7) was 112%. It also gave an activation at 0.01 µM ([21]; M -8) of 116%, an activation at […] ([21]; M -9.5) of 72.6% and an activation at 0.0001 µM ([21]; M -10) of 78.7%. The activation at 31.62 pM ([21]; M -10.5) was 43.5%.
For dynorphin A 1–13, the “activity at Gustducin” value [22] is listed as “nearly inactive”.
